Drawing on BindingDB's records for PubMed 9336327 (Preclinical R & D, Astra Arcus, 1997), this text covers Ki for two molecules.

For experiment [1], the target named is Histamine H2 receptor (Cavia porcellus, UniProt P47747).
For experiment [2], the target named is T1, Muscarinic acetylcholine receptor M2 (Rattus norvegicus, UniProt P10980).
T1 sequence (P10980 whole entry): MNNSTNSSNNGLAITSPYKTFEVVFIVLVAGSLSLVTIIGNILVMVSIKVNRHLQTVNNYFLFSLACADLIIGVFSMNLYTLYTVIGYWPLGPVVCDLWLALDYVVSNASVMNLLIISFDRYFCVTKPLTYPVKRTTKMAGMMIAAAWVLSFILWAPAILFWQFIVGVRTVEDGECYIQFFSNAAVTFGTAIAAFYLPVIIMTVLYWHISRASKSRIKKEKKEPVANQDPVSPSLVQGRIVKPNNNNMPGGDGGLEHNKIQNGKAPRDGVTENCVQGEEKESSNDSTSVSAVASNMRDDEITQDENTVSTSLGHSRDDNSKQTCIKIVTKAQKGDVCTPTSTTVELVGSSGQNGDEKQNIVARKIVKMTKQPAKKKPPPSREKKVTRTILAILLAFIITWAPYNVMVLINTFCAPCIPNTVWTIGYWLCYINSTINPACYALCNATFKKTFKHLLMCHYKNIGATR

Experiment [3] concerns the target 5-hydroxytryptamine receptor 2A (Rattus norvegicus, UniProt P14842).
Experiment [4] addresses T2, 5-hydroxytryptamine receptor 1A (Rattus norvegicus, UniProt P19327).
T2 sequence (P19327 whole entry): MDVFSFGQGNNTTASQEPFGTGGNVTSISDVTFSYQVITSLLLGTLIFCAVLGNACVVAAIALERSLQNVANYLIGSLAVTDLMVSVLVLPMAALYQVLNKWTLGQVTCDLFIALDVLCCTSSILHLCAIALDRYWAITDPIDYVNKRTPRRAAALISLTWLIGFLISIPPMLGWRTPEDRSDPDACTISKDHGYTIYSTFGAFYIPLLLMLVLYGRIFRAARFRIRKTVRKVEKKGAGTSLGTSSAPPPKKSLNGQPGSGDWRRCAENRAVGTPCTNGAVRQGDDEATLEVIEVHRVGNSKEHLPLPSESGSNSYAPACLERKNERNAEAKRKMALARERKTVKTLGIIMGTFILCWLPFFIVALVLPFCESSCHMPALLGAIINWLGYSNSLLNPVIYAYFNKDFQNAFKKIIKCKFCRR

For experiment [5], the target named is D(1A) dopamine receptor (Rattus norvegicus, UniProt P18901).
The target in experiment [6] is Beta-2 adrenergic receptor (Rattus norvegicus, UniProt P10608).
For experiment [7], the target named is T3, Alpha-2C adrenergic receptor (Rattus norvegicus, UniProt P22086).
T3 sequence (P22086 whole entry): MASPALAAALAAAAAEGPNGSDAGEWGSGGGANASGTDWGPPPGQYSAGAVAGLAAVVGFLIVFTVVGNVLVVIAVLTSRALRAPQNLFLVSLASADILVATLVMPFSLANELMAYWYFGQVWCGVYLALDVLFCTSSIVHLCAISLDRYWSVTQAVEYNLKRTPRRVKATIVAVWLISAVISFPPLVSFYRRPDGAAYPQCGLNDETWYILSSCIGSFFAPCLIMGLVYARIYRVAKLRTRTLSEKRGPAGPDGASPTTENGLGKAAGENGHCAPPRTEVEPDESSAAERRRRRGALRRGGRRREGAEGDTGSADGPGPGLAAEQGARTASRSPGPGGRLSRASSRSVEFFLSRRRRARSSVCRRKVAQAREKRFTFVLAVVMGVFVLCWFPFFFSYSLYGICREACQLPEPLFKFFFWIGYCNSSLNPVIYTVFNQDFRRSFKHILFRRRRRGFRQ

In experiment [8] the target is 5-hydroxytryptamine receptor 1B (Rattus norvegicus, UniProt P28564).
The target of experiment [9] is Histamine H1 receptor (Rattus norvegicus, UniProt P31390).
The target in experiment [10] is 5-hydroxytryptamine receptor 6 (Rattus norvegicus, UniProt P31388).
Experiment [11] concerns the target D(2) dopamine receptor (Homo sapiens, UniProt P14416).
Experiment [12] deals with Nicotinic acetylcholine receptor (Rattus leucopus, UniProt Q62594).
For experiment [13], the target named is Glutamate receptor 3 (Rattus norvegicus, UniProt P19492).
Experiment [14] addresses T4, Alpha-1A adrenergic receptor (Rattus norvegicus, UniProt P43140).
T4 sequence (P43140 whole entry): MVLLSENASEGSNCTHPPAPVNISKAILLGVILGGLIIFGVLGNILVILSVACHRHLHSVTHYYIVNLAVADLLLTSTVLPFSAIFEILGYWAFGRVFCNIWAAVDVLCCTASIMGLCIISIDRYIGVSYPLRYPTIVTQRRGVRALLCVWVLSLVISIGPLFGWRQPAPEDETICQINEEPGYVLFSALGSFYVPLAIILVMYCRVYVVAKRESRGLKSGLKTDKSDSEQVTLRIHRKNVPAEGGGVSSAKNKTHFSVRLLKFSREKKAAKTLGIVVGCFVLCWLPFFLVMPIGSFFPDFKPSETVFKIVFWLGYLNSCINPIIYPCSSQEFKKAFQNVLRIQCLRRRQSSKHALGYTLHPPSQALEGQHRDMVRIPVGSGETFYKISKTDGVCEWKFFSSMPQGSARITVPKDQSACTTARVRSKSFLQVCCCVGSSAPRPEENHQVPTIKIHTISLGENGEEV

Experiment [15] concerns the target T5, Galanin peptides (Rattus norvegicus, UniProt P10683).
T5 sequence (P10683 whole entry): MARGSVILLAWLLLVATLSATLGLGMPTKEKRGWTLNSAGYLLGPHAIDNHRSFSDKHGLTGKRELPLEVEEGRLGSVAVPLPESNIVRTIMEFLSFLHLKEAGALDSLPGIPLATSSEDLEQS

Experiment [16] concerns the target Gamma-aminobutyric acid receptor subunit alpha-1 (Rattus norvegicus, UniProt P62813).
For experiment [17], the target named is D(3) dopamine receptor (Homo sapiens, UniProt P35462).
Experiment [18] concerns the target Glutamate receptor ionotropic, NMDA 1 (Rattus norvegicus, UniProt P35439).
The target in experiment [19] is 5-hydroxytryptamine receptor 7 (Rattus norvegicus, UniProt P32305).

The structures appear in SMILES notation. pKi: −log10 of the molar value.

A word on the pKi: it is the Ki on a negative log10 scale, so that one unit is a factor of ten.

Chain of Histamine H2 receptor (P47747 whole entry): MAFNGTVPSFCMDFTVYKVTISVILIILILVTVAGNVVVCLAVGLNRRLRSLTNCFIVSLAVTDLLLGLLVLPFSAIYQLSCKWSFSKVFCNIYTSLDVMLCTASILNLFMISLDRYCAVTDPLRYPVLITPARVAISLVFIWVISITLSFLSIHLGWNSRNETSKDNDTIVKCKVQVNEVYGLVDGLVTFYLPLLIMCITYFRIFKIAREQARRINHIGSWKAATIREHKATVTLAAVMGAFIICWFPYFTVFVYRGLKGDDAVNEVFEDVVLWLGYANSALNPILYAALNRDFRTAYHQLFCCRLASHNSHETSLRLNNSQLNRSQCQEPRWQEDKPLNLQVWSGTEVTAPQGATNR
Chain of 5-hydroxytryptamine receptor 2A (P14842 whole entry): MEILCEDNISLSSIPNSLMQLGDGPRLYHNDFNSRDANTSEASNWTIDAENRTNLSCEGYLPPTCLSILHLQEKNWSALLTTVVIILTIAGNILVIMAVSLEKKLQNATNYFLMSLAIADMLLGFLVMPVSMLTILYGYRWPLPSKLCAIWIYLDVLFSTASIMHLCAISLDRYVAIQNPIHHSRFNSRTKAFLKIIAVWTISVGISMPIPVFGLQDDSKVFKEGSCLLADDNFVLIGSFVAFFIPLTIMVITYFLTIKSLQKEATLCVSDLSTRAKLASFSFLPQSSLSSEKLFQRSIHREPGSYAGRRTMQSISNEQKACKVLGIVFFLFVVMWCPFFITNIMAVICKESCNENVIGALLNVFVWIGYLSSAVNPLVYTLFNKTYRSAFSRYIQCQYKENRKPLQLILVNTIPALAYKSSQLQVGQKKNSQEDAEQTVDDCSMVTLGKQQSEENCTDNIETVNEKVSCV
Chain of Nicotinic acetylcholine receptor (Q62594 whole entry): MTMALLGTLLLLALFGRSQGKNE
Chain of Histamine H1 receptor (P31390 whole entry): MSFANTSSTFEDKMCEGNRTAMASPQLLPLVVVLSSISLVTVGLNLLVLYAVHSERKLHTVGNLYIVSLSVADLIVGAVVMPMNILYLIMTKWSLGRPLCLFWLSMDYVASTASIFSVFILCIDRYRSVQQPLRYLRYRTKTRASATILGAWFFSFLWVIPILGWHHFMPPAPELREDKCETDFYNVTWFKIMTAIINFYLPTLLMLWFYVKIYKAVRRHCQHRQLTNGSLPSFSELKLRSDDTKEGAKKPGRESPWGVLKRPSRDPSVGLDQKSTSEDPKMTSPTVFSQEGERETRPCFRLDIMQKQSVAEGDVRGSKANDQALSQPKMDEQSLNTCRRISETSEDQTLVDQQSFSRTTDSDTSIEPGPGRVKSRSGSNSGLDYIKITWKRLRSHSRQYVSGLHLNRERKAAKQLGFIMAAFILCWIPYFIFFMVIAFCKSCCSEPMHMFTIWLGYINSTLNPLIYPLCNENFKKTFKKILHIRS
Chain of Beta-2 adrenergic receptor (P10608 whole entry): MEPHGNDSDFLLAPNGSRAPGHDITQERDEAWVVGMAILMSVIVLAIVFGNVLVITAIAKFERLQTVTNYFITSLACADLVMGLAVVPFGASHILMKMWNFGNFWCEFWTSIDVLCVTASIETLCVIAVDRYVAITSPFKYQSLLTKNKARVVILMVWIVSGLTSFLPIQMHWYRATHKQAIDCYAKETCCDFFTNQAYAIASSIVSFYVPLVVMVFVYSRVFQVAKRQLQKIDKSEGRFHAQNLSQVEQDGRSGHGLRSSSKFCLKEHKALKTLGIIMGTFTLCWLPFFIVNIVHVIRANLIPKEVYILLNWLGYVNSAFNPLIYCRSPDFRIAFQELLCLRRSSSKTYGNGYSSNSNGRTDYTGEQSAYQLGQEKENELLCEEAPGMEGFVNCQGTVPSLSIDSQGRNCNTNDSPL
Chain of Gamma-aminobutyric acid receptor subunit alpha-1 (P62813 whole entry): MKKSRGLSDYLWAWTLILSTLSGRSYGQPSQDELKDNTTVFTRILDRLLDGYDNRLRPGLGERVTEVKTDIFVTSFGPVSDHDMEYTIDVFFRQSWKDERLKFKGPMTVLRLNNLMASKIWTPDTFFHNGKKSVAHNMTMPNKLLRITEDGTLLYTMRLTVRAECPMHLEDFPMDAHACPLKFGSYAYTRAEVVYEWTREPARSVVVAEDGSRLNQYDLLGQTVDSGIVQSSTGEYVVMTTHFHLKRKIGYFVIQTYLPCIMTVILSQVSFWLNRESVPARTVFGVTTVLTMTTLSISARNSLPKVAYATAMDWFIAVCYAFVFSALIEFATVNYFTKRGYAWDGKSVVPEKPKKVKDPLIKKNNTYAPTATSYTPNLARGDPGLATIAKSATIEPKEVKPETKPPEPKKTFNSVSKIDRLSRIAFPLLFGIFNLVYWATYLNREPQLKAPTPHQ
Chain of Glutamate receptor 3 (P19492 whole entry): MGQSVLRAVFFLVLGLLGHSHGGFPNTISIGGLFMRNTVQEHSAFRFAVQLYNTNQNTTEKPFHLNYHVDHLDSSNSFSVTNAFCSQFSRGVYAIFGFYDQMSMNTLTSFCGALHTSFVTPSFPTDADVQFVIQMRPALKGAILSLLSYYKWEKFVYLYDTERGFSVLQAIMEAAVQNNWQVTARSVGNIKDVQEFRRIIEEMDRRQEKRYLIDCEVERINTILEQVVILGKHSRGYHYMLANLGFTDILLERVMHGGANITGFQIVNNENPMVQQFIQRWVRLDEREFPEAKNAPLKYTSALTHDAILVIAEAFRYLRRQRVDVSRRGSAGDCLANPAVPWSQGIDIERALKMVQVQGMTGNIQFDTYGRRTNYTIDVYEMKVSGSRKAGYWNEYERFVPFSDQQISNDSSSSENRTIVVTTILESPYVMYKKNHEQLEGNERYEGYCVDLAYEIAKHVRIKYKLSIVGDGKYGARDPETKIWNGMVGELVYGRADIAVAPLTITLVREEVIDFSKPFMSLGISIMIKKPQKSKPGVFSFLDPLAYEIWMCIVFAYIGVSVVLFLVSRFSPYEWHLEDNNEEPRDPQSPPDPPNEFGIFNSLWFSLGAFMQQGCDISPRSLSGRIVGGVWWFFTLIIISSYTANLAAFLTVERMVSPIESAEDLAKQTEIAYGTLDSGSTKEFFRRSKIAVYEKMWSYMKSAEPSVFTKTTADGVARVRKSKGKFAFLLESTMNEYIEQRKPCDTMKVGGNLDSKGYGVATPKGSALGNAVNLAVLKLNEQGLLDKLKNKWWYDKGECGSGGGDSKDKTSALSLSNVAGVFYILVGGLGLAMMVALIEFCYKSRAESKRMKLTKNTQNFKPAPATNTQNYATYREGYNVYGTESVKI
Chain of D(2) dopamine receptor (P14416 whole entry): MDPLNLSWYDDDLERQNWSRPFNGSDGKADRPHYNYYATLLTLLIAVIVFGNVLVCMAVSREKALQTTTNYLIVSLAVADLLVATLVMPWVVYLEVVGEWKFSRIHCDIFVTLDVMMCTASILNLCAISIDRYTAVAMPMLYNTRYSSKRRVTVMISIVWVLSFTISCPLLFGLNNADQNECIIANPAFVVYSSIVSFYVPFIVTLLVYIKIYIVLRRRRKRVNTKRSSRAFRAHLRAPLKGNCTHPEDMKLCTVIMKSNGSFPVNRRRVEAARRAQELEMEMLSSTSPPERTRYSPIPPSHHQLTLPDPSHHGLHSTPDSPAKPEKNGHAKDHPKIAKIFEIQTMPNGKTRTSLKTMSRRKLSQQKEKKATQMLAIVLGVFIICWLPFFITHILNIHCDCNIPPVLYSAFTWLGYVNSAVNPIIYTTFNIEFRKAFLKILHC
Chain of D(3) dopamine receptor (P35462 as listed by the source): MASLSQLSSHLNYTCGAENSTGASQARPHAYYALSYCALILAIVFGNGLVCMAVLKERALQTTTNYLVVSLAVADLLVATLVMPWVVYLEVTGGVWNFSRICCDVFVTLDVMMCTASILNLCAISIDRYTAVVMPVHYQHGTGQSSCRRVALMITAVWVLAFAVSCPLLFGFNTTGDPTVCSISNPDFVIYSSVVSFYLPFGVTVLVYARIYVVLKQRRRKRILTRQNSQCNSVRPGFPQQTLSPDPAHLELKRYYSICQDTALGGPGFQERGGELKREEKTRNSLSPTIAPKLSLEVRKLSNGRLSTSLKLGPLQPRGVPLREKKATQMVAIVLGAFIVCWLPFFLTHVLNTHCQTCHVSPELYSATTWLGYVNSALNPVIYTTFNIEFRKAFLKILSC
Chain of D(1A) dopamine receptor (P18901 whole entry): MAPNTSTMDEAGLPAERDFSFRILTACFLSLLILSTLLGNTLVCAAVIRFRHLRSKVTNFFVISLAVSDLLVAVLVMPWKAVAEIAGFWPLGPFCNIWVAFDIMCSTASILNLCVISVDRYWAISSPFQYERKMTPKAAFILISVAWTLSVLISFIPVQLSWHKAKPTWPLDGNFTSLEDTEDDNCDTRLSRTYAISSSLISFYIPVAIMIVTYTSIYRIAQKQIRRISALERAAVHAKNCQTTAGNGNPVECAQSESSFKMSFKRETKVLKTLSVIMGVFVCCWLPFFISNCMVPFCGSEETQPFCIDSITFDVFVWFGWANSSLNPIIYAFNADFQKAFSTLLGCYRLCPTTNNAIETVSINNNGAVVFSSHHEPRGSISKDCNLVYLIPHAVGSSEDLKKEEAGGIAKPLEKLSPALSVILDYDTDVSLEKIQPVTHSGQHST
Chain of 5-hydroxytryptamine receptor 6 (P31388 whole entry): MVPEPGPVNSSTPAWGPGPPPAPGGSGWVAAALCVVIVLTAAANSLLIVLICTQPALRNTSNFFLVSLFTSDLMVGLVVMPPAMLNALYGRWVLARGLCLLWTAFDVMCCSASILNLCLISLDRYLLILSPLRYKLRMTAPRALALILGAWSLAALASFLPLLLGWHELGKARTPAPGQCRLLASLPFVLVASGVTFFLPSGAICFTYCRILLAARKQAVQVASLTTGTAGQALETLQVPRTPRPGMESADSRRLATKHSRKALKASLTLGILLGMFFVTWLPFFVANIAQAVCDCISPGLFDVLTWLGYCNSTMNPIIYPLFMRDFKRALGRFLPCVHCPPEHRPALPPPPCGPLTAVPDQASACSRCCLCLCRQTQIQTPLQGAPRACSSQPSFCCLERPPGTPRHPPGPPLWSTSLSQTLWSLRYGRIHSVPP

For `NC(=O)c1ccc(F)c2c1CC(N(C1CCC1)C1CCC1)CO2` (stereo not drawn) [CAS_3055171], the pKi in [1] was less than 5.00; in experiment [2] it was 6.00; in [3], less than 5.00; in experiment [4], 9.23; in experiment [5] it was 6.00; in experiment [6], 6.47. Besides, the pKi in [7] is 6.00; in [8] it was 6.00; in [9], less than 5.00; in [10] it was less than 5.00; in experiment [11], 6.00; in experiment [12], less than 5.00. Besides, the pKi in experiment [13] is less than 5.00; in experiment [14], 6.59; in [15], 5.59; in experiment [16], less than 5.00; in experiment [17] it was 6.00; in experiment [18] it was less than 5.00. The same molecule gave a pKi in [19] of 5.72.
In the case of `COc1ccccc1N1CCN(CCN(C(=O)C2CCCCC2)c2ccccn2)CC1`, the pKi in experiment [1] is less than 5.00; in experiment [2], 6.00; in experiment [3], 5.96; in [5] it was 6.00; in experiment [6], 6.00; in experiment [7], 6.00. For the same molecule, the pKi in [9] was less than 5.00; in [11] it was 7.10; in experiment [12], less than 5.00; in [13] it was less than 5.00; in experiment [15] it was 5.59; in [16], less than 5.00. Also, the results for the negative-log Ki (pKi) in experiment [17] and in [18] were 7.17 and less than 5.00, respectively.
